From US10463644B2, “Uses of sesquiterpene lactone compounds and their derivatives in drugs preparation” (ACCENDATECH, priority 2013, dated 2019)
Read-outs that look alike come from different tables or passages of the source.

What was measured:
[1] = system: IL-1β secreted by synoviocyte; assay: Content of IL-1β in culture supernatant of synoviocyte of RA model rats given test compound; type: in vivo; settings: rat RA model, dose 30 mg/kg.2d; normal control 0.16 ± 0.034, NaCl 0.49 ± 0.136
Method in brief: (§1)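 Values reflect mediator secretion by synoviocytes taken from arthritic rats dosed at 30 mg/kg.2d. Normal and NaCl groups served as references.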

[2] = system: PGE2 secreted by synoviocyte; assay: Content of PGE2 in culture supernatant of synoviocyte of RA model rats given test compound; type: in vivo; settings: rat RA model, dose 30 mg/kg.2d; normal control 8.34 ± 1.29, NaCl 32.44 ± 10.32
Method in brief: as §1

[3] = system: cancer stem cells; assay: Survival rate of cancer stem cells after test compound is added (flow cytometry, Annexin V-FITC/PI, clinical specimen); type: cell-based, patient; settings: Homo sapiens, 18 h
Method in brief: (§2)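 Ficoll-isolated mononuclear cells from patient specimens (e.g. AML) in serum-free IMDM at 1×10^6/mL were exposed to compound for 18 hours. Cells were stained for stem-cell markers (CD34+CD38+ for AML) plus Annexin V-FITC/PI, and apoptosis was read by flow cytometry within one hour.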

[4] = system: cancer cells; assay: Survival rate of cancer cells after test compound is added (flow cytometry, Annexin V-FITC/PI, clinical specimen); type: cell-based, patient; settings: Homo sapiens, 18 h, read-out: Survival rate (%) All cells (Stem cells and ordinary cells)
Method in brief: as §2

[5] = system: normal cells; assay: Survival rate of normal cells after test compound is added (flow cytometry, Annexin V-FITC/PI); type: cell-based; settings: 18 h
Method in brief: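 Survival was determined in clinical specimens after an 18 h compound treatment, using Annexin V-FITC/PI apoptosis staining and flow cytometry.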

[6] = Head and neck squamous cell carcinomas
[7] = read-out: Survival rate (%) All cells (Stem cells and ordinary cells)
[8] = read-out: Survival rate (%) Stem cells

## [2H][C@@]1(CN(C)C)C(=O)O[C@@H]2[C@@H]3[C@@H](CCC34CC4)C3(CC[C@H]21)CC3 [Compound 46]
[1]
  Content of IL-1β in culture supernatant of synoviocyte (x ± s): 0.36 ± 0.067 ng/mL
[2]
  Content of PGE2 in culture supernatant of synoviocyte (x ± s): 24.74 ± 2.64 ng/mL
[3]; AML
  viability at 10 µM: 82%
  viability at 20 µM: 74%
[3]; Brain glioma
  viability at 10 µM: 88%
  viability at 20 µM: 81%
[3]; Brain tumor
  viability at 10 µM: 88%
  viability at 20 µM: 81%
[3]; Breast cancer
  viability at 10 µM: 82%
  viability at 20 µM: 76%
[3]; CLL
  viability at 10 µM: 82%
  viability at 20 µM: 76%
[3]; CML
  viability at 10 µM: 85%
  viability at 20 µM: 79%
[3]; Children hepatoblastoma
  viability at 10 µM: 84%
  viability at 20 µM: 78%
[3]; Colon adenocarcinoma
  viability at 10 µM: 84%
  viability at 20 µM: 74%
[3]; Colorectal cancer
  viability at 10 µM: 86%
  viability at 20 µM: 78%
[3]; Gastric cancer
  viability at 10 µM: 87%
  viability at 20 µM: 76%
[3]; Gastrointestinal tumor
  viability at 10 µM: 82%
  viability at 20 µM: 76%
[3]; Glioma
  viability at 10 µM: 87%
  viability at 20 µM: 75%
[3]; [6]
  viability at 10 µM: 84%
  viability at 20 µM: 78%
[3]; Laryngeal cancer
  viability at 10 µM: 81%
  viability at 20 µM: 75%
[3]; Liver cancer
  viability at 10 µM: 81%
  viability at 20 µM: 75%
[3]; Lung adenocarcinoma
  viability at 10 µM: 85%
  viability at 20 µM: 79%
[3]; Lung cancer
  viability at 10 µM: 82%
  viability at 20 µM: 76%
[3]; Malignant melanoma
  viability at 10 µM: 85%
  viability at 20 µM: 77%
[3]; Nasopharynx cancer
  viability at 10 µM: 79%
  viability at 20 µM: 72%
[3]; Ovarian cancer
  viability at 10 µM: 79%
  viability at 20 µM: 72%
[3]; Pancreatic cancer
  viability at 10 µM: 85%
  viability at 20 µM: 79%
[3]; Prostate cancer
  viability at 10 µM: 87%
  viability at 20 µM: 76%
[3]; Retinoblastoma
  viability at 10 µM: 82%
  viability at 20 µM: 73%
[3]; Skin cancer
  viability at 10 µM: 85%
  viability at 20 µM: 77%
[4]; AML
  viability at 10 µM: 88%
  viability at 20 µM: 85%
[4]; Brain glioma
  viability at 10 µM: 91%
  viability at 20 µM: 89%
[4]; Brain tumor
  viability at 10 µM: 91%
  viability at 20 µM: 89%
[4]; Breast cancer
  viability at 10 µM: 89%
  viability at 20 µM: 86%
[4]; CLL
  viability at 10 µM: 88%
  viability at 20 µM: 89%
[4]; CML
  viability at 10 µM: 93%
  viability at 20 µM: 86%
[4]; Children hepatoblastoma
  viability at 10 µM: 91%
  viability at 20 µM: 88%
[4]; Colon adenocarcinoma
  viability at 10 µM: 89%
  viability at 20 µM: 86%
[4]; Colorectal cancer
  viability at 10 µM: 93%
  viability at 20 µM: 92%
[4]; Gastric cancer
  viability at 10 µM: 94%
  viability at 20 µM: 87%
[4]; Gastrointestinal tumor
  viability at 10 µM: 89%
  viability at 20 µM: 86%
[4]; Glioma
  viability at 10 µM: 91%
  viability at 20 µM: 84%
[4]; [6]
  viability at 10 µM: 91%
  viability at 20 µM: 88%
[4]; Laryngeal cancer
  viability at 10 µM: 87%
  viability at 20 µM: 83%
[4]; Liver cancer
  viability at 10 µM: 87%
  viability at 20 µM: 83%
[4]; Lung adenocarcinoma
  viability at 10 µM: 93%
  viability at 20 µM: 86%
[4]; Lung cancer
  viability at 10 µM: 88%
  viability at 20 µM: 89%
[4]; Malignant melanoma
  viability at 10 µM: 92%
  viability at 20 µM: 89%
[4]; Nasopharynx cancer
  viability at 10 µM: 88%
  viability at 20 µM: 81%
[4]; Ovarian cancer
  viability at 10 µM: 88%
  viability at 20 µM: 81%
[4]; Pancreatic cancer
  viability at 10 µM: 88%
  viability at 20 µM: 85%
[4]; Prostate cancer
  viability at 10 µM: 94%
  viability at 20 µM: 87%
[4]; Retinoblastoma
  viability at 10 µM: 91%
  viability at 20 µM: 87%
[4]; Skin cancer
  viability at 10 µM: 92%
  viability at 20 µM: 89%
[5]; [7]
  viability at 10 µM: 95%
  viability at 20 µM: 94%
[5]; [8]
  viability at 10 µM: 94%
  viability at 20 µM: 92%
